# Test results taken from patent publication US20220396597A1 (priority 2019, published 2022).
# Test system: hippocampal neurons
# Assay: Frequency of spontaneous EPSCs in hippocampal cultures
# Type: cell-based, rat
# Details: concentrations up to 2.5 μM; n=6
smiles,measurement,value
C[C@H](CCCOS(=O)(=O)O)[C@H]1CC[C@H]2[C@@H]3CC[C@H]4C[C@@H](O)CC[C@]4(C)[C@H]3CC[C@]12C [MQ-221],Increase of frequency of EPSCs,2±7%
